# Source: the METLIN SMRT retention time set (Domingo-Almenara et al. 2019)
# Experiment: gradient 5% acetonitrile 3 min, to 50% in 2 min, to 85% in 15 min, held 3 min, 100 µL/min
# Conditions: column: Zorbax Extend-C18 2.1 x 50 mm; eluents: water / acetonitrile, 0.1% formic acid
# Summary of the method: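 Retention time was recorded from adduct peaks, which were picked computationally and each inspected manually. Pure standards ran in mixtures of ~100 molecules on HPLC coupled to a quadrupole time-of-flight mass spectrometer, in positive and negative ionization mode, through a Zorbax Extend-C18 column (2.1 × 50 mm, 1.8 μm) at 100 μL/min. Eluents were water and acetonitrile, each with 0.1% formic acid.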
row,SMILES,RP-LC retention time [s]
1,O=C(Cc1csc(NC(=O)c2ccc(=O)[nH]c2)n1)NCc1ccccc1Cl,616
2,COc1ccc(CC(=O)N2CC(c3nc(C)no3)C3(CCOCC3)C2)cc1 (configuration not stated),712
3,CCc1ccccc1N1C[C@@]23C=C[C@@H](O2)[C@H](C(=O)OC)[C@@H]3C1=O,730
4,Cc1nc(C2CCN(C(=O)CCc3c[nH]c4ccccc34)CC2)n[nH]1,603
5,CCc1noc(-c2nc(-c3ccc(OC)cc3)no2)n1,986
6,Cc1ccc2c(c1)N(Cc1ccc(Cl)cc1)N=C(C(=O)N1CCOCC1)S2(=O)=O,896
7,COc1ccc(-c2noc(CN3N=NC4C(=O)N(c5cccc(F)c5)C(=O)C43)n2)cc1OC (configuration not stated),1260
8,CCCN1CCN(C(=O)C(C)C2CCN(S(=O)(=O)c3ccc(Cl)s3)CC2)CC1 (configuration not stated),674
9,Cc1ccc(-c2cn3c(n2)N(C(=O)c2sc(C)nc2C)CCC3)cc1,642
10,COc1c(C(=O)NC2CCCC2)sc2ccc(F)cc12,1080
11,Cc1ccc(-c2csc(NC(=O)CSc3nc4c(cc3C#N)CCC4)n2)cc1,1210
12,O=S(=O)(c1cc(-c2ccno2)cs1)N(Cc1cccs1)C1CCCCC1,1190
13,Cn1nc(-c2nc(C3CC3)no2)c2c1CCN(C(=O)c1cc3c(s1)CCCC3)C2,1010
14,COc1ccc(NC(=O)CCCSc2ccc(F)cc2)c([N+](=O)[O-])c1,983
15,Cc1nc(C2CC23CCN(S(=O)(=O)c2c(C)c(C)cc(C)c2C)CC3)no1 (configuration not stated),1170
16,COc1ccc(CCNC(=O)C2CCCN(S(=O)(=O)c3ccc(OC)c(C)c3)C2)cc1 (configuration not stated),891
17,O=C(Nc1nc(-c2ccc(F)cc2)cs1)C1CC1,884
18,CCCS(=O)(=O)N1CCc2c(c(-c3nncn3Cc3ccccc3)nn2C)C1,769
19,COc1ccc(C)cc1NS(=O)(=O)c1ccc2c(c1)CCCC(=O)N2,709
20,O=C(C1CCN(c2nc(-c3ccc(Cl)cc3)no2)CC1)N1CCOCC1,874

row,SMILES,RP-LC retention time [s]
1,CCOc1ccc(CNC(=O)CC2CCN(C(=O)c3[nH]c(C)c(C(=O)OC)c3C)CC2)cc1,750
2,CCOC(=O)C1CCN(Cc2nc3nc(C)cc(N4CCC(C)CC4)n3n2)CC1,642
3,CCc1cccc(NS(=O)(=O)c2ccc3c(c2)CCCC(=O)N3)c1,780
4,CN1CCN(S(=O)(=O)c2ccc(C#N)cc2)CC1c1ccccc1 (configuration not stated),528
5,N#CC1(C(=O)NCCc2ccc(Cl)cc2)CC1,873
6,Cc1ccc(NC(=O)N2CCCC(C)(C(=O)NCc3ccccc3C)C2)c(Cl)c1 (configuration not stated),984
7,COc1ccc(C)cc1NC(=O)N1CCC(c2nc3ccncc3n2CC(C)C)C1 (configuration not stated),586
8,CC(C)COc1cc(=O)n2c(c1C(=O)NC1CCCCC1)CCCCC2,842
9,CCCNc1cc(N2CCC(CCC(=O)Nc3cc(C)ccc3C)CC2)ncn1,608
10,CCCSCCCNC(=O)COc1ccccc1-c1nnc(-c2ccccc2)o1,1160
11,O=C1CC(C(=O)N2CCN(Cc3ccc4c(c3)OCO4)CC2)CN1CCc1c[nH]c2ccc(F)cc12 (configuration not stated),649
12,COC(=O)C1=C(C)N(Cc2ccccc2)C(=O)NC1c1ccccc1[N+](=O)[O-] (configuration not stated),856
13,O=C(CSc1nnc2c3sc(N4CCCC4)nc3ncn12)Nc1ccc2c(c1)OCCO2,758
14,COC(=O)c1ccc(C2CC(=O)Nc3cc(OC)cc(OC)c32)cc1 (configuration not stated),784
15,Cc1ccc(C2=NC3(CCN(C(=O)c4ccoc4)CC3)ON2)cc1,752
16,CCOc1ccccc1N1CCN(S(=O)(=O)c2nn(C)cc2C(=O)NCCCOC)CC1,847
17,O=C(CN1C(=O)CSc2ccc(C(=O)N3CCCCC3)cc21)NCCN1CCCCC1,612
18,CCN(Cc1cn(C)nc1C)C(=O)c1cc2c(=O)n(CC(C)C)c3ccccc3n2n1,864
19,Cc1nn(C(=O)CC(C)C)c(C)c1S(=O)(=O)N1CCCC1,586
20,O=C(c1ccccc1)N1CCc2ccc(NS(=O)(=O)c3cccs3)cc2C1,759

row,SMILES,RP-LC retention time [s]
1,COc1cccc(-c2nnc(Cc3nc(-c4cccc(C(F)(F)F)c4)no3)o2)c1,1100
2,O=C(NCC(c1ccsc1)N1CCc2ccccc2C1)c1cccs1 (configuration not stated),569
3,O=C(O)c1cc2nc(-c3ccc(Cl)cc3)cc(C(F)(F)F)n2n1,927
4,O=C(Cc1ccc(Br)cc1)N1CCCN(c2cc(-c3ccc(F)cc3)[nH]n2)CC1,773
5,O=C(c1ccc(F)c(Cl)c1)N1CCN(c2cc(-c3ccc(F)cc3)[nH]n2)CC1,894
6,Cc1ccc(S(=O)(=O)N2C[C@H](F)C[C@@H]2C(=O)N2CCOCC2)cc1Cl,750
7,Cc1noc(-c2ccc(=O)n(CC(C)C)n2)n1,761
8,O=S(=O)(c1cccc2cccnc12)N1CC[C@@H]2COCCN(Cc3cccnc3)[C@@H]2C1,600
9,COCCNC(=O)CC1CCN(C(=O)c2[nH]c(C)c(C)c2C)CC1,657
10,COC(=O)c1[nH]c(C)c(C(=O)C(C)N(CC2CCCCC2)C(=O)c2ccc(F)cc2)c1C (configuration not stated),1080
11,CCC(C(=O)N1CCC(N2CCCCC2)CC1)n1nc(C)c2sc3ccccc3c2c1=O (configuration not stated),676
12,CCCc1cc(C2CCCN2C(=O)NCc2cccc(OC)c2)no1 (configuration not stated),856
13,CCc1noc(-c2ccc(-n3cnc(C(=O)NC4CCCCC4)c3)nc2)n1,1110
14,O=C([C@@H]1C[C@H](Oc2ccccc2)CN1C(=O)COc1ccccc1)N1CCCC1,828
15,CC1CCN(C(=O)C2c3ccccc3CCN2CC(=O)Nc2ccc(F)cc2Cl)CC1 (configuration not stated),936
16,CS(=O)(=O)Nc1ccc(-c2noc(-c3ccc4c(c3)OCO4)n2)cc1,897
17,O=C(c1ccco1)N1CCC(Oc2nc3ccc(F)cc3s2)CC1,902
18,O=C(CCn1c(N2CCCCC2)nc2ccccc2c1=O)N1CCN(c2ccccn2)CC1,630
19,O=C1NCCCn2cc(S(=O)(=O)N3CCCCCC3)cc21,661

# The remaining lines, values ahead:
row,RP-LC retention time [s],SMILES
1,891,O=C(Cn1ccn2nc(-c3ccc(F)cc3)c(CO)c2c1=O)Nc1ccc(Br)cc1
2,947,COc1ccc(C(=O)N2CCCC2c2nc(-c3cccc(C)c3)no2)cn1 (configuration not stated)
3,750,O=C(NCc1cccnc1)C1CCN(Cc2cc3ccccc3n2Cc2cccc(Cl)c2)CC1
4,862,Cc1cc(=O)n(CC(=O)Nc2ccc(Br)cc2F)c(N(C)Cc2ccccc2)n1
5,683,CCOC(=O)c1cccc(NC(=O)NC2CCN(c3ccccc3)C2=O)c1 (configuration not stated)
6,894,COc1ccccc1-c1noc(C2CCCN2C(=O)Nc2cccc(F)c2)n1 (configuration not stated)
7,620,Cc1ccc(F)c2c(=O)c3c([nH]c12)CCN(CC(=O)Nc1cccc(F)c1)C3
8,1090,CCCN1C(=O)c2cc(S(=O)(=O)Nc3ccccc3Cl)ccc2Oc2cccnc21
9,626,COc1ccc(NC(=O)Nc2ccc(-c3cn4ccc(C)nc4n3)cc2)cc1
10,1010,O=C(Nc1ccc(F)cc1)N1CCc2nc(-c3ccc(Cl)cc3)ncc2C1
11,1010,CCCn1c(=O)c2cc(C(=O)NCc3ccccc3C)nn2c2ccccc21
12,886,Cc1ccc2c(c1)N(C(=O)Cn1ncn3c(C)c(C(=O)NCc4ccccc4)c(C)c3c1=O)CCO2
13,732,CCOc1ccccc1C(=O)Nc1c(-c2ccc(OC)cc2)nc2cc(C)ccn12
14,774,CCNC(=O)c1ccc2c(c1)n(Cc1ccccc1)c(=O)c1ccnn12
15,653,COc1ccc(-c2cn3cccnc3n2)cc1NC(=O)c1c(F)cccc1F
16,1030,CN(C)S(=O)(=O)c1ccc(C(=O)Nc2nc(-c3coc4ccccc34)cs2)cc1
17,830,CCOc1ccc(CNC(=O)C2CCCN(c3ccc(=O)n(-c4ccc(C)c(Cl)c4)n3)C2)cc1 (configuration not stated)
18,940,CC(C)N1C(=O)c2cccnc2Sc2cc(NC(=O)Cc3cccc(Cl)c3)ccc21
19,1010,CSc1cccc(NC(=O)c2cnc(-c3ccc(C)cc3)nc2-c2ccncc2)c1
20,1140,Cc1cc(F)ccc1NC(=O)c1cc(C(C)C)n2nccc2n1
21,971,CCOc1ccc(NC(=O)Cn2nc3cc(C)nc(-c4cccc(Cl)c4)n3c2=O)cc1
22,1040,CCc1nn2c(CNS(=O)(=O)Cc3ccc(C)c(C)c3)c(-c3ccccc3)nc2s1
23,939,COc1ccc(-c2csc3c(=O)n(CC(=O)OC(C)C)cnc23)cc1
24,762,COc1ccc(OC)c(NC(=O)c2ccc3nc(-c4ccccc4)cn3c2)c1
25,895,CCN1c2ccc(Cl)cc2C(=O)NC12CCN(C(=O)Nc1ccccc1OC)CC2
26,765,CCC(C)NC(=O)Cn1nc(C)c2sc(-c3ccccc3)nc2c1=O (configuration not stated)
27,1030,CCOC(=O)c1ccccc1NC(=O)CSc1nnc2c3cc(-c4ccc(F)cc4)nn3ccn12
28,806,Cc1ccc(Nc2nc(C)cc(N3CCN(C(=O)Nc4cccc(C(F)(F)F)c4)CC3)n2)cc1
